Assay results as given in US20230322735A1, “AZETIDINYL TRYPTAMINES AND METHODS OF TREATING PSYCHIATRIC DISORDERS” (priority 2020, published 2023).

Assays:
Sprague Dawley rats = assay: Forced swim test (FST) in rats; type: in vivo, rat; conditions: SC
Method: These effects on swimming were stronger than those induced by the control antidepressant desipramine.
Animals. Male Sprague Dawley rats, aged 8-10 weeks, were used in the experiments. Animals were housed in groups of 2 under controlled temperature (22±3° C.) and relative humidity (30-70%) conditions, with 12-hour light/dark cycles, and with ad libitum food and water. These studies were carried out in strict accordance with the requirements of the Committee for the Purpose of Control and Supervision of Experiments on Animals (CPCSEA), India. All efforts were made to minimize suffering.
Drugs and Drug Administration. Compound 2 was prepared as described above. All other compounds were commercially obtained. Test compounds, saline vehicle, and the positive control desipramine were administered subcutaneously (SC), with doses calculated based on the free base. […] All compounds were administered at a volume of 5 mL/kg. Test compounds and vehicle were administered 0.5 h after the start of the training swim (Swim 1) and 23.5 h before the test swim (Swim 2). Desipramine was administered 3 times, at 23.5 h, 5 h, and 1 h before the test swim (Swim 2), each time at a dose of 20 mg/kg.
Forced Swim Test (FST). […] Group size was N=10 per treatment, except for the vehicle and desipramine groups, which were N=20. Rats were handled for about 2 min daily for the 5 days prior to the beginning of the experimental procedure. On the first day of the experiment (i.e., Day 0), post randomization, training swim sessions (Swim 1) were conducted between 12:00 and 18:00 h with all animals by placing rats in individual glass cylinders (46 cm tall×20 cm in diameter) containing 23-25° C. water 30 cm deep for 15 minutes. At the conclusion of Swim 1, animals were dried with paper towels, placed in heated drying cages for 15 minutes, and then returned to their home cages. […]
Behavioral scoring was conducted by observers who were blind to the treatment groups. Animals were continuously observed during Swim 2 and the total time spent engaging in the following behaviors was recorded: immobile, swimming, and climbing. […]

5-HT1A receptor = molecular target: T1, 5-HT1A receptor (Homo sapiens, UniProt P08908); assay: FLIPR Ca2+ flux agonist assay at 5-HT1A (CHO cells); type: cell-based
T1 construct: host or cells: CHO cells
T1 sequence (P08908 1-422): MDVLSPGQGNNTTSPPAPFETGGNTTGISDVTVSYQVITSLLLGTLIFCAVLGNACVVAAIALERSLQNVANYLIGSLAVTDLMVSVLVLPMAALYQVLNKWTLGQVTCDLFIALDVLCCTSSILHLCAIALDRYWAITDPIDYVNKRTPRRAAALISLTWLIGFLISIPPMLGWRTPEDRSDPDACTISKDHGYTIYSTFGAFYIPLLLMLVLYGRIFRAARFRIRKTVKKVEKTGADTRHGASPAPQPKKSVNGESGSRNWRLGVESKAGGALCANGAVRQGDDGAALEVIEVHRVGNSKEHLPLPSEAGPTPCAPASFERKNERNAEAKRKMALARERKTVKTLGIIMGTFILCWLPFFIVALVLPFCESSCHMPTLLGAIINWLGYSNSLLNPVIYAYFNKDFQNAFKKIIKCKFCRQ
Method: (§1) A solution of 250 mM probenecid in 1 mL FLIPR assay buffer was prepared fresh. This was combined with a fluorescent dye (Fluo-4 Direct™) to make a final assay concentration of 2.5 mM. […] The fluorescent dye was then added to the assay plate along with assay buffer to a final volume of 40 μL. The cell plate was incubated for 50 min at 37° C. and 5% CO2 and placed into the FLIPR Tetra along with the compound plate. 10 μL of references and compounds were then transferred from the compound plate into the cell plate and the fluorescent signal was read.

[1] = Metabolic stability in human liver microsomes (HLM)
human 5-HT2C receptor = molecular target: T2, human 5-HT2C receptor (Homo sapiens, UniProt P28335); assay: cell-based; conditions: Ca2+ flux, agonist mode
T2 sequence (P28335 33-458): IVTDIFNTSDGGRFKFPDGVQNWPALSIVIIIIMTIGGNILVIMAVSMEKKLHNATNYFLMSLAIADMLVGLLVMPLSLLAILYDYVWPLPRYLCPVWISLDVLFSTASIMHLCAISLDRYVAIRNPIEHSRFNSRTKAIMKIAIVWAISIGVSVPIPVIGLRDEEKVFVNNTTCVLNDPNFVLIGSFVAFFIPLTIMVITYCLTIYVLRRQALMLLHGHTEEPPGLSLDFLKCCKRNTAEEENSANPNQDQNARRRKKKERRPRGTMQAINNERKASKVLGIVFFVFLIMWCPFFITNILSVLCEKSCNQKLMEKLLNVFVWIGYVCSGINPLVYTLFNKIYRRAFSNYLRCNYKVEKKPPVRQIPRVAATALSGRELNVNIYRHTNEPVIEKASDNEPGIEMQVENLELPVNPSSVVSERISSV

[2] = Stability in mouse brain homogenate
C57BL/6 mice = assay: Head twitch response (HTR) in mice; type: in vivo, mouse; conditions: SC
5-HT2B receptor = molecular target: T3, 5-HT2B receptor (Homo sapiens, UniProt P41595); assay: FLIPR Ca2+ flux agonist assay at 5-HT2B (HEK293); type: cell-based
T3 construct: host or cells: HEK293
Method: as §1

[3] = Stability in rat brain homogenate
[4] = single dose 23.5 h before test swim, vs vehicle
[5] = both, human, pooled human liver microsomes, pH 7.4

T3 sequence (P41595 whole entry): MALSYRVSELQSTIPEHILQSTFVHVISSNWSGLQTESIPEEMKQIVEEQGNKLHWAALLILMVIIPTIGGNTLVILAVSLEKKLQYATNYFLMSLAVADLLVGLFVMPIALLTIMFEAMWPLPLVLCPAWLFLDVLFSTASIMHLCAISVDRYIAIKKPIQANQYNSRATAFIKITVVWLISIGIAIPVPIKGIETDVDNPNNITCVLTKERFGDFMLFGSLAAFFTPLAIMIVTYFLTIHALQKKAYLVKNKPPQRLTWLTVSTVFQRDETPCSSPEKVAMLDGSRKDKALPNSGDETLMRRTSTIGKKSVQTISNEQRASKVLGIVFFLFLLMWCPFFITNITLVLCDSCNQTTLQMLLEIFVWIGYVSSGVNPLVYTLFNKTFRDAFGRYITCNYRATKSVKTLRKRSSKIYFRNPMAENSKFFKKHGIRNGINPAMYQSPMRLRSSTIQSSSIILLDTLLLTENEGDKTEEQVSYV

## Oc1cccc2[nH]cc(CCN3CCC3)c12 [Compound 2, 3-(2-(azetidin-1-yl)ethyl)-1H-indol-4-ol]
Sprague Dawley rats; 23.5 h pre-treatment, lowest dose tested
  dose with significant effect on immobility in the FST: ≤ 0.1 mg/kg
Sprague Dawley rats; [4]
  immobility time in the FST: reduced immobility time
  swimming time in the FST: significant increases in swimming
5-HT1A receptor
  EC50: 1030 nM
5-HT1A receptor; Ca2+ flux, agonist mode, CHO cells
  5-HT1A % Act @ Max Dose: 102%
[1]; [5]
  half-life at 1 μM: > 2.42 h
  microsomal CLint at 1 μM: < 9.6 µL/min/mg
[1]; vs DMT, psilocin, 5-MeO-DMT respectively
  metabolic stability in HLM compared with dimethyl counterpart: greater metabolic stability
Human 5-HT2C receptor
  5-HT2C % Act @ Max Dose: 48.4%
  EC50: 279 nM
[2]
  stability in mouse brain homogenate (in words): good stability
[2]; male, CD-1, mouse, mouse brain homogenate
  half-life at 1 μM: > 4.82 h
[2]; mouse brain homogenate (male CD-1), 1 μM, 37° C., 120 min
  % Compound Remaining (after 120 min): 74.2%
C57BL/6 mice; dose 0.1 mg/kg
  Average HTR Over 20-min Test: 4.667
C57BL/6 mice; dose 1 mg/kg
  Average HTR Over 20-min Test: 8.667
C57BL/6 mice; dose 10 mg/kg
  Average HTR Over 20-min Test: 9.000
5-HT2B receptor
  EC50: > 10000 nM
5-HT2B receptor; Ca2+ flux, agonist mode, HEK293
  5-HT2B % Act @ Max Dose: 3.83%
[3]
  stability in rat brain homogenate (in words): good stability
[3]; male, Sprague Dawley, rat, rat brain homogenate
  half-life at 1 μM: 2.91 h
[3]; rat brain homogenate (male Sprague Dawley), 1 μM, 37° C., 120 min
  % Compound Remaining (after 120 min): 56.8%
